Assay results as given in ChEMBL document CHEMBL1125871, “Inhibitors of cholesterol biosynthesis. 4. trans-6-[2-(substituted-quinolinyl)ethenyl/ethyl]tetrahydro-4-hydroxy-2 H-pyran-2-ones, a novel series of HMG-CoA reductase inhibitors” (J Med Chem, 1991).
pIC50: −log10 of the molar value.

Columns and labels:
Rattus norvegicus [1] = species: Rattus norvegicus; assay: Compound was evaluated for the percentage of acute inhibition of cholesterol synthesis (AICS) in male rats through peroral rout.; assay type: functional; parameters: concentration or dose not given beside the values
Rattus norvegicus [2] = species: Rattus norvegicus; assay: (§1) Compound was tested for its relative Cholesterol Synthesis Inhibition as compared to compactin in rats.; assay type: functional
Rattus norvegicus [3] = species: Rattus norvegicus; assay: Compound was tested for its Cholesterol Synthesis Inhibition ability in rats.; assay type: functional, organism-based
[4] = target: T1, 3-hydroxy-3-methylglutaryl-coenzyme A reductase (Rattus norvegicus, UniProt P51639); assay: Compound was evaluated for the inhibition of HMG-CoA reductase (COR) in rats.
T1 sequence (P51639 whole entry): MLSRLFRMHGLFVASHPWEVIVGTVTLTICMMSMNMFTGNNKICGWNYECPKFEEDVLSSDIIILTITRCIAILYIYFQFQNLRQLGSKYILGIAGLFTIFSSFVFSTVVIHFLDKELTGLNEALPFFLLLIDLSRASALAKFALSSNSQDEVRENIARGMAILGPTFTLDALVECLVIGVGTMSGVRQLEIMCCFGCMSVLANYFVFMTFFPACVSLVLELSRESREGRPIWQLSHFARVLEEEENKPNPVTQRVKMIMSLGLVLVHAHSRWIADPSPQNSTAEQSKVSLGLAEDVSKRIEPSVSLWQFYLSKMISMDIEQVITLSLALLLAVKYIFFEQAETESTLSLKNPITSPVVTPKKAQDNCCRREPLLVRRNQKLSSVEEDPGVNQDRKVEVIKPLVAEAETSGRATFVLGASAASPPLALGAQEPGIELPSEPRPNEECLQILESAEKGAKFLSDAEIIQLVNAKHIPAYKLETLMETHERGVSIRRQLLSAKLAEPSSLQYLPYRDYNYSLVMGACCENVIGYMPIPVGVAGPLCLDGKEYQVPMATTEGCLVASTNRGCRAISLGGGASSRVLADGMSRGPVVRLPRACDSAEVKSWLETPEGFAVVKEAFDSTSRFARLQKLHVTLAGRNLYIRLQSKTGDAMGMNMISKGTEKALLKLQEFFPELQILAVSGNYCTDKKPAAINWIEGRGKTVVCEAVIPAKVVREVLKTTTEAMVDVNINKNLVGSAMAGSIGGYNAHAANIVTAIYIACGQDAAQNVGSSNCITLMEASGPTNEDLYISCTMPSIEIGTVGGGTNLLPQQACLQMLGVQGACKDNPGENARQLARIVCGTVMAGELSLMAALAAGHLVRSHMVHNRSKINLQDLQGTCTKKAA

[5] = as §1; assay type: functional

SMILES	Inhibition (Rattus norvegicus [1]) [%]	Relative inhibition (Rattus norvegicus [2])	pIC50 (Rattus norvegicus [3])	pIC50 [4]	Relative inhibition [5]
Cc1cnc2ccccc2c1/C=C/[C@@H]1C[C@@H](O)CC(=O)O1	42	<1	< 6.00		
COc1ccc2nc(C(C)C)c(/C=C/[C@@H]3C[C@@H](O)CC(=O)O3)c(-c3ccc(F)cc3)c2c1	60	100	7.89	7.28	
CC(C)c1c(/C=C/[C@@H]2C[C@@H](O)CC(=O)O2)c(-c2ccc(F)cc2)c2cc(F)ccc2[n+]1[O-]	47		7.74	7.10	112
CN(C)c1nc2ccccc2c(-c2ccc(F)cc2)c1/C=C/[C@@H]1C[C@@H](O)CC(=O)O1	52	13.2	7.33	6.46	
CC(C)c1nc2ccccc2c(-c2ccc(F)cc2)c1CC[C@@H]1C[C@@H](O)CC(=O)O1		<1	< 6.00		
CC(C)c1nc2ccc(Cl)cc2c(-c2ccc(F)cc2)c1/C=C/[C@@H]1C[C@@H](O)CC(=O)O1	61	100	7.49	7.60	
CC(C)c1nc2ccccc2c(-c2ccc(F)cc2)c1/C=C/[C@@H]1C[C@@H](O)CC(=O)O1	70	75.8	7.38	7.49	
Cc1nc2ccc(Cl)cc2c(-c2ccc(F)cc2)c1/C=C/[C@@H]1C[C@@H](O)CC(=O)O1	18	6.3	6.40	6.14	
CC(C)c1nc2ccc(F)cc2c(-c2ccc(F)cc2)c1/C=C/[C@@H]1C[C@@H](O)CC(=O)O1 (stereo in doubt; 8d)	68	77.6	7.30	6.70	
CC(C)c1nc2ccc(F)cc2c(-c2ccc(F)cc2)c1/C=C/[C@@H]1C[C@@H](O)CC(=O)O1 (stereo in doubt; 17)	69				
CC[C@H](C)C(=O)O[C@H]1C[C@@H](C)C=C2C=C[C@H](C)[C@H](CC[C@@H]3C[C@@H](O)CC(=O)O3)[C@H]21 [LOVASTATIN]	72	118	7.60	7.55	
CC[C@H](C)C(=O)O[C@H]1CCC=C2C=C[C@H](C)[C@H](CC[C@@H]3C[C@@H](O)CC(=O)O3)[C@H]21 [MEVASTATIN]	36		7.52		
